Data from publication PMC3326641 (Journal of Medicinal Chemistry, 2012).

Target: T1, TrxR (rat liver thioredoxin reductase) (Rattus norvegicus, UniProt O89049)
T1 sequence (O89049 1-499): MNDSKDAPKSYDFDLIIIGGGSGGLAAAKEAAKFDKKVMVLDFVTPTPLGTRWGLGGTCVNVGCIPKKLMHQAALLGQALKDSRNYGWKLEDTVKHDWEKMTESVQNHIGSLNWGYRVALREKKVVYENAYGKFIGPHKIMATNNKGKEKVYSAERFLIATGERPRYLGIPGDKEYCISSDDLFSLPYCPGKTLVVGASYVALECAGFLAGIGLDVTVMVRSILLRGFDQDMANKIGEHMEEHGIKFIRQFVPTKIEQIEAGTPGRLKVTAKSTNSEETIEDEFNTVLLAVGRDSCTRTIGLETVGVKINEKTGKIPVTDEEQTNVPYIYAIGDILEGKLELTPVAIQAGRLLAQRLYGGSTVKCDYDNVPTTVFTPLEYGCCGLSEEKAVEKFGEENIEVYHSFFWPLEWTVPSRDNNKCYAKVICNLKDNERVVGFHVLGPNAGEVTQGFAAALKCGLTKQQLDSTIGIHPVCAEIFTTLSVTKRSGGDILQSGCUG
Assay: DTNB reduction, absorbance at […] nm
Assay type: biochemical

SMILES: CC(C)(C)OC(=O)n1ccc2c[c]([Au-][P+](C3CCCCC3)(C3CCCCC3)C3CCCCC3)ccc21 [compound 4, [5-{Tricyclohexylphosphine gold(I)}-tert-butyl 1H-indole-1-carboxylate]]
- inhibition at 40 µM: 39%
